Source: ChEMBL document CHEMBL1128799, “Design and synthesis of a conformationally constrained analog of the bis(heteroaryl)piperazine (BHAP) HIV-1 reverse transcriptase inhibitor atevirdine” (Bioorg Med Chem Lett, 1995)
Where a name gives a salt, the structure may show the parent alone.

Tests used:
[1] = target: Human immunodeficiency virus type 1 reverse transcriptase (Human immunodeficiency virus 1) (UniProt Q72547); test: Compound was tested in vitro for percent inhibition of HIV- I reverse transcriptase (RT) at dose 100 uM
[2] = system: Human immunodeficiency virus 1; test: Effective dose was evaluated for the inhibition of viral replication (PBMC); format: functional; conditions: read-out: ED50 (the source's name)

Row | inhibition [1] [%] | EC50 [2] [pM] | Structure (SMILES)
1 | 38 | – | CCN1CC2(CCN(C(=O)c3cc4cc(NS(C)(=O)=O)ccc4[nH]3)CC2)c2ncccc21
2 | – | 1000 | CCNc1cccnc1N1CCN(C(=O)c2cc3cc(OC)ccc3[nH]2)CC1 [ATEVIRDINE SULPHATE]
3 | – | 100 | CC(C)Nc1cccnc1N1CCN(C(=O)c2cc3cc(NS(C)(=O)=O)ccc3[nH]2)CC1 [DELAVIRDINE MESYLATE]
